Test results from PMC7031696 (Cell chemical biology, 2019).

Tested on: 3D7-MR4 trophozoite parasite-infected RBCs
Assay: Metabolomic profiling (hydrophilic metabolite changes, UHPLC-MS)
Type: cell-based, Plasmodium falciparum

CC(C)(C)c1ccc2c(c1)CN(Cc1ccc(Cl)cc1)CO2 [MMV000442]
Log2(fold changes) adenosine (metabolite adenosine, log2 fold change): 0.0000
Log2(fold changes) alanine/sarcosine (metabolite alanine/sarcosine, log2 fold change): -0.9186
Log2(fold changes) anthranilate (metabolite anthranilate, log2 fold change): 0.3315
Log2(fold changes) arginine (metabolite arginine, log2 fold change): -1.6314
Log2(fold changes) asparagine (metabolite asparagine, log2 fold change): -0.3296
Log2(fold changes) aspartate (metabolite aspartate, log2 fold change): -0.6205
Log2(fold changes) biotin (metabolite biotin, log2 fold change): -0.8987
Log2(fold changes) cCMP (metabolite cCMP, log2 fold change): 0.0000
Log2(fold changes) cGMP (metabolite cGMP, log2 fold change): 0.0000
Log2(fold changes) carnitine (metabolite carnitine, log2 fold change): 0.0000
Log2(fold changes) citrate/isocitrate (metabolite citrate/isocitrate, log2 fold change): 0.0000
Log2(fold change) of coenzyme A (metabolite coenzyme A): 0.0000
Log2(fold change) of cyclic-AMP (metabolite cyclic-AMP): -0.6289
Log2(fold change) of cytidine (metabolite cytidine): 0.6525
Log2(fold change) of dAMP (metabolite dAMP): 0.2859
Log2(fold change) of dATP (metabolite dATP): 0.0000
Log2(fold change) of dCDP (metabolite dCDP): -0.4379
Log2(fold change) of dCMP (metabolite dCMP): 0.0000
Log2(fold change) of dCTP (metabolite dCTP): 0.0000
Log2(fold change) of dGDP/ADP (metabolite dGDP/ADP): -0.0785
Log2(fold change) of dGMP/AMP (metabolite dGMP/AMP): 0.0000
Log2(fold change) of dGTP/ATP (metabolite dGTP/ATP): 0.0000
Log2(fold change) of dTDP (metabolite dTDP): -0.1987
Log2(fold change) of dTMP (metabolite dTMP): 0.0000
Log2(fold change) of dTTP (metabolite dTTP): -0.2587
Log2(fold change) of dUMP (metabolite dUMP): 0.0000
Log2(fold change) of dUTP (metabolite dUTP): -0.3266
Log2(fold change) of deoxyguanosine (metabolite deoxyguanosine): 0.0000
Log2(fold change) of deoxyinosine (metabolite deoxyinosine): 0.0000
Log2(fold change) of deoxyribose-phosphate (metabolite deoxyribose-phosphate): 0.7610
Log2(fold change) of deoxyuridine (metabolite deoxyuridine): 0.1388
Log2(fold change) of dihydroorotate (metabolite dihydroorotate): -0.6717
Log2(fold change) of folate (metabolite folate): -0.1041
Log2(fold change) of fructose-1-6-bisphosphate (metabolite fructose-1-6-bisphosphate): -0.1009
Log2(fold change) of fructose-6-phosphate (metabolite fructose-6-phosphate): -0.3802
Log2(fold change) of fumarate (metabolite fumarate): -0.7813
Log2(fold change) of glucono-lactone (metabolite glucono-lactone): 0.0000
Log2(fold change) of glucose-1/6-phosphate (metabolite glucose-1/6-phosphate): 0.0000
Log2(fold change) of glutamate (metabolite glutamate): -0.2803
Log2(fold change) of glutamine (metabolite glutamine): -0.0929
Log2(fold change) of glutathione (metabolite glutathione): -0.1808
Log2(fold change) glutathione disulfide (metabolite glutathione disulfide): -0.3868
Log2(fold change) glycerate (metabolite glycerate): -0.4490
Log2(fold change) guanine (metabolite guanine): -0.8448
Log2(fold change) guanosine (metabolite guanosine): -1.2469
Log2(fold change) histidine (metabolite histidine): -1.0996
Log2(fold change) homocysteic acid (metabolite homocysteic acid): -0.4943
Log2(fold change) hydroxyphenylpyruvate (metabolite hydroxyphenylpyruvate): 0.0000
Log2(fold change) hydroxyproline/Aminolevulinate (metabolite hydroxyproline/Aminolevulinate): -0.0777
Log2(fold change) hypoxanthine (metabolite hypoxanthine): -0.1293
Log2(fold change) indole (metabolite indole): 0.0000
Log2(fold change) inosine (metabolite inosine): -0.6031
Log2(fold change) isoleucine (metabolite isoleucine): -0.8559
Log2(fold change) lactate (metabolite lactate): -0.6662
Log2(fold change) leucine (metabolite leucine): 0.0000
Log2(fold change) lysine (metabolite lysine): -2.7291
Log2(fold change) malate (metabolite malate): -1.5961
Log2(fold change) maleic acid (metabolite maleic acid): 0.0000
Log2(fold change) methionine (metabolite methionine): -0.3354
Log2(fold change) myo-inositol (metabolite myo-inositol): 0.0000
Log2(fold change) nicotinamide mononucleotide (metabolite nicotinamide mononucleotide): -1.1163
Log2(fold change) nicotinate (metabolite nicotinate): -0.1414
Log2(fold change) ornithine (metabolite ornithine): -0.3825
Log2(fold change) orotate (metabolite orotate): 0.0000
Log2(fold change) orotidine-5'-phosphate (metabolite orotidine-5'-phosphate): -4.2271
Log2(fold change) oxaloacetate (metabolite oxaloacetate): 0.0000
Log2(fold change) p-aminobenzoate (metabolite p-aminobenzoate): 0.0000
Log2(fold change) p-hydroxybenzoate (metabolite p-hydroxybenzoate): 0.0000
Log2(fold change) pantothenate (metabolite pantothenate): -0.5576
Log2(fold change) phenylalanine (metabolite phenylalanine): -0.7473
Log2(fold change) phenylpyruvate (metabolite phenylpyruvate): 0.0000
Log2(fold change) phosphoenolpyruvate (metabolite phosphoenolpyruvate): 0.5342
Log2(fold change) prephenate (metabolite prephenate): -0.6985
Log2(fold change) proline (metabolite proline): -0.4674
Log2(fold change) pyridoxine (metabolite pyridoxine): -0.4977
Log2(fold change) pyruvate (metabolite pyruvate): -0.6971
Log2(fold change) riboflavin (metabolite riboflavin): 0.0000
Log2(fold change) ribose (metabolite ribose): -0.3439
Log2(fold change) ribose-phosphate (metabolite ribose-phosphate): -0.4255
Log2(fold change) ribulose-5-phosphate (metabolite ribulose-5-phosphate): 0.0000
Log2(fold change) serine (metabolite serine): -0.2977
Log2(fold change) sn-glycerol-3-phosphate (metabolite sn-glycerol-3-phosphate): 0.0000
Log2(fold change) succinate/Methylmalonic acid (metabolite succinate/Methylmalonic acid): 0.2362
Log2(fold change) succinyl-CoA/methylmalonyl-CoA (metabolite succinyl-CoA/methylmalonyl-CoA): 0.0000
Log2(fold change) taurine (metabolite taurine): 0.0000
Log2(fold change) thiamine (metabolite thiamine): -0.4264
Log2(fold change) threonine/homoserine (metabolite threonine/homoserine): -0.5095
Log2(fold change) thymidine (metabolite thymidine): 0.0000
Log2(fold changes) thymine (metabolite thymine, log2 fold change): 0.0000
Log2(fold changes) trehalose-6-Phosphate (metabolite trehalose-6-Phosphate, log2 fold change): 0.0000
Log2(fold changes) tryptophan (metabolite tryptophan, log2 fold change): -0.3248
Log2(fold changes) tyrosine (metabolite tyrosine, log2 fold change): -0.3731
Log2(fold changes) uridine (metabolite uridine, log2 fold change): -0.7263
Log2(fold changes) valine (metabolite valine, log2 fold change): 0.0000
Log2(fold changes) xanthine (metabolite xanthine, log2 fold change): 0.0000
Log2(fold changes) xanthosine-5-phosphate (metabolite xanthosine-5-phosphate, log2 fold change): 0.0000
Log2(fold changes) xanthosine (metabolite xanthosine, log2 fold change): -0.5168
Log2(fold changes) xylose (metabolite xylose, log2 fold change): 0.0000
